Experimental findings from ChEMBL document CHEMBL4831526, “Cytotoxic Guaianolide Sesquiterpenoids from Ainsliaea fragrans” (J Nat Prod, 2021) are described below.

Structures are written as SMILES.

By IC50 is commonly meant the concentration that inhibits the measured activity by half.

Holding throughout (assay type): functional, cell-based
Experiment [1] concerns Huh-7. Kind of experiment: Cytotoxicity against human Huh-7 cells assessed as reduction in cell viability incubated for 72 hrs by Celltiter-Glo assay. As to conditions: Huh-7, 72 h.
Experiment [2] has as its system C6. Kind of experiment: Cytotoxicity against rat C6 cells assessed as reduction in cell viability incubated for 72 hrs by Celltiter-Glo assay. As to conditions: C6, 72 h. On the technique in general: Cellular ATP, detected with luciferase, serves as a proxy for viable cell number.
In experiment [3] the test system is PANC-1. The experiment can be described thus: Cytotoxicity against human PANC-1 cells assessed as reduction in cell viability incubated for 72 hrs by Celltiter-Glo assay. As to conditions: PANC-1, 72 h.
For experiment [4], the system named is HeLa. Kind of experiment: Cytotoxicity against human HeLa cells assessed as reduction in cell viability incubated for 72 hrs by Celltiter-Glo assay.
Experiment [5] can be described thus: Cytotoxicity against human HCCLM3 cells assessed as reduction in cell viability incubated for 72 hrs by Celltiter-Glo assay. As to conditions: HCCLM3, 72 h.

With `C=C1C(=O)O[C@@H]2[C@@H]3[C@@H](C[C@@]4(O)[C@]3(O)CC[C@]43C(=O)C[C@H]4C(=C)CC[C@H]5C(=C)C(=O)O[C@@H]5[C@H]43)C(=C)CC[C@@H]12`, the IC50 was 4.4 µM in experiment [1]; 4.3 µM in experiment [2]; 9.9 µM in experiment [3]; 5.3 µM in experiment [4]; above 10 µM in experiment [5].
The like results for `C=C1C(=O)O[C@@H]2[C@@H]3C4=C(C(=O)[C@H]3C)[C@]3(CC[C@@]4(O)CC[C@@H]12)C(=O)C[C@H]1C(=C)CC[C@@H]2[C@H](OC(=O)[C@H]2C)[C@H]13` were, in that order, 4.1 µM, 3.1 µM, 4.9 µM, 6.5 µM and above 10 µM.
On the same counts, the results for `C=C1C(=O)O[C@@H]2[C@@H]3C4=C(C(=O)[C@H]3CO)[C@]3(CC[C@]4(O)CC[C@@H]12)C(=O)C[C@H]1C(=C)CC[C@H]2C(=C)C(=O)O[C@@H]2[C@H]13` are above 10 µM, above 10 µM, above 10 µM, above 10 µM and above 10 µM.
The like results for `C=C1C(=O)C2=C3[C@H]1[C@H]1OC(=O)C(CO)=C1CC[C@]3(O)CC[C@]21C(=O)C[C@H]2C(=C)CC[C@H]3C(=C)C(=O)O[C@@H]3[C@H]21` were, in that order, above 10 µM, 9.9 µM, above 10 µM, above 10 µM and above 10 µM.
`C=C1C(=O)C2=C3[C@@H](CC[C@H]4C(=C)C(=O)O[C@@H]4[C@@H]13)CC[C@]21C(=O)C[C@H]2C(=C)CC[C@H]3C(=C)C(=O)O[C@@H]3[C@H]21`: the half-inhibitory concentration (IC50) is above 10 µM in experiment [1]; 6.4 µM in experiment [2]; above 10 µM in experiment [3]; above 10 µM in experiment [4]; above 10 µM in experiment [5].
As for `C=C1C(=O)C2=C3[C@H]1[C@H]1OC(=O)C(=C)[C@@H]1CC[C@]3(O)CC[C@]21C(=O)[C@H](C[C@@H]2C(=O)C[C@H]3C(=C)CC[C@H]4C(=C)C(=O)O[C@@H]4[C@@H]23)[C@H]2C(=C)CC[C@H]3C(=C)C(=O)O[C@@H]3[C@H]21`, the half-maximal inhibitory concentration (IC50) in experiment [1] amounted to 2.5 µM; in experiment [2], 0.7 µM; in experiment [3] it was 0.4 µM; in experiment [4], 1.3 µM; in experiment [5] it was 8.3 µM.
The like results for `C=C1C(=O)C2=C3[C@H]1[C@H]1OC(=O)C(=C)[C@@H]1CC[C@]3(O)CC[C@]21C(=O)C[C@H]2C(=C)CC[C@H]3C(=C)C(=O)O[C@@H]3[C@H]21` were, in that order, 2.5 µM, 1.2 µM, 2.2 µM, 2.8 µM and above 10 µM.
With `C=C1C(=O)C2=C3[C@H]1[C@H]1OC(=O)C(=C)[C@@H]1CC[C@@]3(O)CC[C@]21C(=O)C[C@H]2C(=C)CC[C@H]3C(=C)C(=O)O[C@@H]3[C@H]21`, the IC50 in experiment [1] was above 10 µM; in experiment [2], above 10 µM; in experiment [3], 5.4 µM; in experiment [4], above 10 µM; in experiment [5] it was above 10 µM.
As for `C=C1C(=O)C2=C3[C@H](CC[C@H]4C(=C)C(=O)O[C@@H]4[C@@H]13)CC[C@]21C(=O)C[C@H]2C(=C)CC[C@H]3C(=C)C(=O)O[C@@H]3[C@H]21`, the 50% inhibitory concentration (IC50) in experiment [1], in experiment [2], in experiment [3], in experiment [4] and in experiment [5] was above 10 µM in each case.
Regarding `C=C1C(=O)C2=C3[C@H](CC[C@H]4C(=C)C(=O)O[C@@H]4[C@@H]13)CC[C@@]21C(=O)C2=C3[C@H]1[C@H]1OC(=O)C(=C)[C@@H]1CC[C@@]3(O)CC[C@]21C(=O)C[C@H]2C(=C)CC[C@H]3C(=C)C(=O)O[C@@H]3[C@H]21`, the IC50 in experiment [1] was 7.5 µM; in experiment [2] it was 2.1 µM; in experiment [3], 2.5 µM; in experiment [4] it was 7 µM; in experiment [5], above 10 µM.
